Test results from PubChem BioAssay AID312 (DTP/NCI, 2004).
Where “and” joins values, the source holds several entries; their conditions need not be identical. Identical values can stand only once. Toxic doses and inconclusive results are not listed.

System: BDF1 mice, C1498 leukemia ip, median survival T/C
Experiment: NCI In Vivo Anticancer Drug Screen. Data for tumor model C1498 Myeloid Leukemia (intraperitoneal) in B6D2F1 (BDF1) mice
Conditions: endpoint: median survival time, higher = longer survival
Experimental: The antitumor activity of compounds was measured in mice bearing transplantable tumors. Survival or tumor size were measured and the results are expressed as the measurement made in the treated group (T) divided by the measurement made in the vehicle treated control group (C). The tumor model used in this assay is C1498 Myeloid Leukemia (intraperitoneal) in B6D2F1 (BDF1) mice

[1] = dose: 10.0 mg/kg/injection, schedule: Q01DX010 (ip), vehicle: saline
[2] = dose: 40.0 mg/kg/injection, schedule: Q01DX010 (ip), vehicle: saline
[3] = dose: 80.0 mg/kg/injection, schedule: Q01DX010 (ip), vehicle: saline
[4] = dose: 8.0 mg/kg/injection, schedule: Q01DX010 (ip), vehicle: saline
[5] = dose: 16.0 mg/kg/injection, schedule: Q01DX010 (ip), vehicle: saline
[6] = dose: 32.0 mg/kg/injection, schedule: Q01DX010 (ip), vehicle: saline
[7] = dose: 1.25 mg/kg/injection, schedule: Q01DX010 (ip), vehicle: other
[8] = dose: 2.5 mg/kg/injection, schedule: Q01DX010 (ip), vehicle: other
[9] = dose: 6.25 mg/kg/injection, schedule: Q01DX010 (ip), vehicle: saline
[10] = dose: 25.0 mg/kg/injection, schedule: Q01DX010 (ip), vehicle: saline
[11] = dose: 4.0 mg/kg/injection, schedule: Q01DX010 (ip), vehicle: saline

CCCCCCCCCCCCCCCC(=O)OCC1OC(n2ccc(N)nc2=O)C(O)C1O (stereo unspecified)
T/C (dose: 125.0 mg/kg/injection, schedule: Q01DX001 (ip), vehicle: saline with Tween-80): 153 % of control and 155 % of control
T/C (dose: 150.0 mg/kg/injection, schedule: Q01DX001 (ip), vehicle: saline with Tween-80): 151 % of control and 194 % of control

COc1cc2c(c3c1c(=O)c1ccccc1n3C)C=CC(C)(C)O2
T/C (dose: 6.25 mg/kg/injection, schedule: Q01DX010 (ip), vehicle: other): 100 % of control
T/C (dose: 12.5 mg/kg/injection, schedule: Q01DX010 (ip), vehicle: other): 107 % of control
T/C (dose: 25.0 mg/kg/injection, schedule: Q01DX010 (ip), vehicle: other): 103 % of control
T/C (dose: 50.0 mg/kg/injection, schedule: Q01DX010 (ip), vehicle: other): 119 % of control
T/C (dose: 100.0 mg/kg/injection, schedule: Q01DX010 (ip), vehicle: other): 100 % of control

Cn1c(N)nc2nc[nH]c2c1=S
T/C [1]: 100 % of control
T/C (dose: 20.0 mg/kg/injection, schedule: Q01DX010 (ip), vehicle: saline): 104 % of control
T/C [2]: 109 % of control
T/C [3]: 109 % of control

COc1cc(C(=O)O)c2c(c1C)OC(=O)c1c(C)cc(O)c(C=O)c1O2
T/C [4]: 100 % of control
T/C [5]: 108 % of control
T/C [6]: 95 % of control

CN(C)[C@@H]1C(=O)C(C(N)=O)=C(O)[C@@]2(O)C(=O)C3=C(O)c4c(O)cccc4C[C@H]3C[C@@H]12
T/C (dose: 7.5 mg/kg/injection, schedule: Q01DX010 (ip), vehicle: saline): 105 % of control and 116 % of control
T/C (dose: 15.0 mg/kg/injection, schedule: Q01DX010 (ip), vehicle: saline): 110 % of control and 112 % of control
T/C (dose: 30.0 mg/kg/injection, schedule: Q01DX010 (ip), vehicle: saline): 95 % of control
T/C (dose: 60.0 mg/kg/injection, schedule: Q01DX010 (ip), vehicle: saline): 95 % of control

O=c1[nH]c(=O)n(C2CC(O)C(CO)O2)cc1F (stereo unspecified)
T/C (dose: 5.0 mg/kg/injection, schedule: Q01DX010 (ip), vehicle: saline): 109 % of control
T/C [1]: 115 % of control and 118 % of control
T/C [2]: 154 % of control
T/C [3]: 107 % of control

COc1cccc2c1C(=O)c1c(O)c3c(c(O)c1C2=O)C[C@@](O)(C(C)=O)C[C@@H]3OC1CC(N)C(O)C(C)O1 (stereo partly specified)
T/C [7]: 107 % of control and 115 % of control
T/C [8]: 92 % of control and 111 % of control
T/C (dose: 156.0 micrograms/kg/injection, schedule: Q01DX010 (ip), vehicle: saline): 118 % of control
T/C (dose: 313.0 micrograms/kg/injection, schedule: Q01DX010 (ip), vehicle: saline): 118 % of control

N=[N+]=CC(=O)OCC(N)C(=O)O (stereo unspecified)
T/C [9]: 150 % of control

C[C@H]1C(=O)O[C@@H]2CCN3CC=C(COC(=O)[C@](C)(O)[C@@]1(C)O)[C@H]23
T/C (dose: 3.13 mg/kg/injection, schedule: Q01DX010 (ip), vehicle: saline): 100 % of control and 103 % of control
T/C [9]: 100 % of control
T/C (dose: 12.5 mg/kg/injection, schedule: Q01DX010 (ip), vehicle: saline): 95 % of control and 107 % of control
T/C [10]: 95 % of control and 96 % of control

C1CN1c1nc(N2CC2)nc(N2CC2)n1
T/C (dose: 0.25 mg/kg/injection, schedule: Q01DX010 (ip), vehicle: saline): 110 % of control
T/C (dose: 0.5 mg/kg/injection, schedule: Q01DX010 (ip), vehicle: saline): 110 % of control

CC(CCC(C)OS(C)(=O)=O)OS(C)(=O)=O (stereo unspecified)
T/C [11]: 109 % of control
T/C [4]: 95 % of control
T/C [5]: 100 % of control
T/C [6]: 104 % of control

C=CC(CN1CC1)OC(C)=O (stereo unspecified)
T/C (dose: 2.0 mg/kg/injection, schedule: Q01DX010 (ip), vehicle: saline): 104 % of control
T/C [11]: 122 % of control
T/C [5]: 104 % of control

S=c1nc[nH]c2nc[nH]c12
T/C [7]: 104 % of control
T/C [8]: 95 % of control
T/C (dose: 5.0 mg/kg/injection, schedule: Q01DX010 (ip), vehicle: other): 109 % of control
T/C (dose: 10.0 mg/kg/injection, schedule: Q01DX010 (ip), vehicle: other): 95 % of control

CCOC(N)=O
T/C (dose: 125.0 mg/kg/injection, schedule: Q01DX010 (ip), vehicle: saline): 95 % of control and 104 % of control
T/C (dose: 250.0 mg/kg/injection, schedule: Q01DX010 (ip), vehicle: saline): 95 % of control and 100 % of control
T/C (dose: 500.0 mg/kg/injection, schedule: Q01DX010 (ip), vehicle: saline): 95 % of control and 109 % of control

CS(=O)(=O)OCC(O)C(O)C(O)C(O)COS(C)(=O)=O (stereo unspecified)
T/C [10]: 100 % of control (2×) and 104 % of control
T/C (dose: 50.0 mg/kg/injection, schedule: Q01DX010 (ip), vehicle: saline): 95 % of control and 100 % of control and 108 % of control
T/C (dose: 100.0 mg/kg/injection, schedule: Q01DX010 (ip), vehicle: saline): 100 % of control (2×) and 109 % of control
T/C (dose: 200.0 mg/kg/injection, schedule: Q01DX010 (ip), vehicle: saline): 104 % of control
